Reference: ChEMBL document CHEMBL1141891, “Crystallographic determination of stereochemistry of biologically active 2'',3''-dibromo-7-epi-10-deacetylcephalomannine” (Bioorg Med Chem Lett, 2005)
Converted amounts (≈) assume the structure as drawn.

How the values were obtained:
Assay type in all cases: functional, cell-based
A549 = experiment: Inhibitory concentration required to inhibit A549 Cell line growth on continuous exposure time of 72 h; conditions: Homo sapiens, A549, 72 h
MCF7 = experiment: Inhibitory concentration required to inhibit MCF-7 Cell line growth on continuous exposure time of 72 h; conditions: Homo sapiens, MCF7, 72 h
A2780 = experiment: Inhibitory concentration against A2780 proliferation after 72 hr; conditions: Homo sapiens, A2780, 72 h

Row | IC50 (A549) | IC50 (MCF7) | IC50 (A2780) | SMILES
1 | 13 ng/mL (≈ 13.7 nM) | 4.75 ng/mL (≈ 5 nM) | 2.13 ng/mL (≈ 2.24 nM) | CC(=O)O[C@@]12CO[C@@H]1C[C@@H](O)[C@@]1(C)C(=O)[C@H](O)C3=C(C)[C@@H](OC(=O)[C@H](O)[C@@H](NC(=O)[C@@](C)(Br)[C@H](C)Br)c4ccccc4)C[C@@](O)([C@@H](OC(=O)c4ccccc4)C12)C3(C)C (some centres not stated)
2 | 26.9 ng/mL (≈ 28.3 nM) | 7.1 ng/mL (≈ 7.48 nM) | 4.84 ng/mL (≈ 5.1 nM) | CC(=O)O[C@@]12CO[C@@H]1C[C@@H](O)[C@@]1(C)C(=O)[C@H](O)C3=C(C)[C@@H](OC(=O)[C@H](O)[C@@H](NC(=O)[C@](C)(Br)[C@@H](C)Br)c4ccccc4)C[C@@](O)([C@@H](OC(=O)c4ccccc4)C12)C3(C)C (some centres not stated)
3 |  |  | 6.76 ng/mL (≈ 7.92 nM) | CC(=O)O[C@H]1C(=O)[C@@]2(C)[C@H]([C@H](OC(=O)c3ccccc3)[C@]3(O)C[C@H](OC(=O)[C@H](O)[C@@H](NC(=O)c4ccccc4)c4ccccc4)C(C)=C1C3(C)C)[C@]1(OC(C)=O)CO[C@@H]1C[C@@H]2O [PACLITAXEL]
